The source made the active and inactive calls. The rule behind the calls is not given here.
Tests used:
[1] = target: T1, P2Y purinoceptor 2 (Homo sapiens, UniProt P41231); experiment: Agonist activity at human P2Y2 receptor expressed in 1321N1 cells assessed as IP accumulation by SPA at 100 uM; type: functional, cell-based
[2] = target: T1, P2Y purinoceptor 2; experiment: Agonist activity at human P2Y2 receptor expressed in 1321N1 cells assessed as IP accumulation by SPA at 1 uM; type: functional, cell-based
[3] = target: T2, P2Y purinoceptor 4 (Homo sapiens, UniProt P51582); experiment: Agonist activity at human P2Y4 receptor expressed in 1321N1 cells assessed as IP accumulation by SPA; type: functional, cell-based
Target sequence in this assay (P51582 whole entry): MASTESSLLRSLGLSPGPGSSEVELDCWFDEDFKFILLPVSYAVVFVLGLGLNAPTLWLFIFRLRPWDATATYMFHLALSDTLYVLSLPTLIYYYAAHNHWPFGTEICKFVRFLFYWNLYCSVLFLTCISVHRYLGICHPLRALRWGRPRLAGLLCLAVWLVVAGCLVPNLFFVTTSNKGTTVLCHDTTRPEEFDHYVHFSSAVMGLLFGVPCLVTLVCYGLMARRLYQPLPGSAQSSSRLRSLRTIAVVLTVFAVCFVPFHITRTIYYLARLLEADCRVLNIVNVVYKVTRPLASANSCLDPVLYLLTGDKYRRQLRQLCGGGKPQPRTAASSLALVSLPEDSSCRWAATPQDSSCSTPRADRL

[4] = target: T3, P2Y purinoceptor 6 (Homo sapiens, UniProt Q15077); experiment: Agonist activity at human P2Y6 receptor expressed in 1321N1 cells assessed as IP accumulation by SPA; type: functional, cell-based
Target sequence in this assay (Q15077 whole entry): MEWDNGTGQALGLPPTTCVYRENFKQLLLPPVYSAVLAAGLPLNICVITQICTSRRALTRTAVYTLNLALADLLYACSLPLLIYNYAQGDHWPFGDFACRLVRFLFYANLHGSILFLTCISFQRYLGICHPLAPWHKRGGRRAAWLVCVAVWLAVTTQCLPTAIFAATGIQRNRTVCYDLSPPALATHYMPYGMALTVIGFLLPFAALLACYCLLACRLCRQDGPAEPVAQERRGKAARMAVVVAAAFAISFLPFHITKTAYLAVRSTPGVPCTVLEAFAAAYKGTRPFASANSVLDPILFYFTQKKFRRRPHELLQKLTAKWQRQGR

[5] = target: T1, P2Y purinoceptor 2; experiment: Agonist activity at human P2Y2 receptor expressed in 1321N1 cells assessed as IP accumulation by SPA; type: functional, cell-based
[6] = target: T2, P2Y purinoceptor 4; experiment: Agonist activity at human P2Y4 receptor expressed in 1321N1 cells assessed as IP accumulation by SPA at 100 uM; type: functional, cell-based
Target sequence in this assay (P51582 whole entry): as the sequence (P51582 whole entry) above

[7] = target: T3, P2Y purinoceptor 6; experiment: Agonist activity at human P2Y6 receptor expressed in 1321N1 cells assessed as IP accumulation by SPA at 100 uM; type: functional, cell-based
Target sequence in this assay (Q15077 whole entry): as the sequence (Q15077 whole entry) above

[8] = target: T3, P2Y purinoceptor 6; experiment: Agonist activity at human P2Y6 receptor expressed in 1321N1 cells assessed as IP accumulation by SPA at 1 uM; type: functional, cell-based
Target sequence in this assay (Q15077 whole entry): as above

[9] = target: T2, P2Y purinoceptor 4; experiment: Antagonist activity at human P2Y4 receptor assessed as inhibition of UTP-induced IP accumulation at 100 uM
Target sequence in this assay (P51582 whole entry, looked up): as the sequence (P51582 whole entry) above

[10] = target: T3, P2Y purinoceptor 6; experiment: Antagonist activity at human P2Y6 receptor assessed as inhibition of UDP-induced IP accumulation at 100 uM
Target sequence in this assay (Q15077 whole entry, looked up): as the sequence (Q15077 whole entry) above

[11] = target: T1, P2Y purinoceptor 2; experiment: Antagonist activity at human P2Y2 receptor assessed as inhibition of UTP-induced IP accumulation at 100 uM; type: functional
[12] = target: T2, P2Y purinoceptor 4; experiment: Agonist activity at human P2Y4 receptor expressed in 1321N1 cells assessed as IP accumulation by SPA at 1 uM; type: functional, cell-based
Target sequence in this assay (P51582 whole entry): as the sequence (P51582 whole entry) above

[13] = organism: Homo sapiens; experiment: Selectivity for human P2Y6 over P2Y4
[14] = target: P2Y purinoceptor 6 (Rattus norvegicus, UniProt Q63371); experiment: Agonist activity at rat P2Y6 receptor assessed as IP accumulation by SPA; type: functional
[15] = organism: Homo sapiens; experiment: Selectivity for human P2Y6 over P2Y2

T1 sequence (P41231 whole entry): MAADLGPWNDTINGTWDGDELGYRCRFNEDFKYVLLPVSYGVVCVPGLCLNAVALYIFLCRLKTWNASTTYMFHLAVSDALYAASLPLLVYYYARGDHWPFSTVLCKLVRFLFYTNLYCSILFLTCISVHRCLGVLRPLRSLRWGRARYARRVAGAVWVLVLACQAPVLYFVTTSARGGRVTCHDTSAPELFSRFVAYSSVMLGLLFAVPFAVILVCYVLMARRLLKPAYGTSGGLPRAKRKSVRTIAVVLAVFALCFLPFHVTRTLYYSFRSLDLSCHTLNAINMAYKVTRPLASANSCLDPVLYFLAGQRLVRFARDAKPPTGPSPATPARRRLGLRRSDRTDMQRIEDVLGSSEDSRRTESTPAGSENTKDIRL
P2Y purinoceptor 6 (Rattus norvegicus, UniProt Q63371), sequence (Q63371 whole entry): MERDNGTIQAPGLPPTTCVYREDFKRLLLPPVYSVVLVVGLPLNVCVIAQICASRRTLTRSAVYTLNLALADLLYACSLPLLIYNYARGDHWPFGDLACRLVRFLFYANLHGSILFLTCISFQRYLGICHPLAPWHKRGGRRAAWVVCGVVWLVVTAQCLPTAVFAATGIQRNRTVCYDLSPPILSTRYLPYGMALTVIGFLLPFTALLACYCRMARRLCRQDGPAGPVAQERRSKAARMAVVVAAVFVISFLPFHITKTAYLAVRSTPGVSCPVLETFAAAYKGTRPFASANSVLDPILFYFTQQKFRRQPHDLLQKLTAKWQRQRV

SMILES | Activity [1] | Activity [2] | EC50 [3] | EC50 [4] | EC50 [5] | Activity [6] | Activity [7] | Activity [8] | Activity [9] | Activity [10] | Activity [11] | Activity [12] | Ratio [13] | EC50 [14] | Ratio [15]
O=C(Cn1c(=O)ccn([C@@H]2O[C@H](COP(=O)(O)OP(=O)(O)O)[C@@H](O)[C@H]2O)c1=O)c1ccccc1 | 85% | 22% | > 100000 nM | 70 nM | > 1000 nM | 11% |  |  |  |  |  |  |  |  | 
Cn1c(=O)ccn([C@@H]2O[C@H](COP(=O)(O)OP(=O)(O)O)[C@@H](O)[C@H]2O)c1=O | 99% | 10% | > 100000 nM | > 1000 nM | > 1000 nM | 0% | 121% | 8% |  |  |  |  |  |  | 
O=c1cc(O)n([C@@H]2O[C@H](COP(=O)(O)OP(=O)(O)OP(=O)(O)O)[C@@H](O)[C@H]2O)c(=O)[nH]1 | 80% | 6% | > 100000 nM | > 100000 nM | > 1000 nM | 12% | 43% | 0% | inactive | inactive | inactive | 11% |  |  | 
O=c1ccn([C@@H]2O[C@H](COP(=O)(O)OP(=O)(O)OP(=O)(O)O)[C@@H](O)[C@H]2O)c(=O)[nH]1 [URIDINE TRIPHOSPHATE] |  |  | 87 nM |  | 43 nM |  |  |  |  |  |  |  |  |  | 
O=c1ccn([C@@H]2O[C@H](COP(=O)(O)OP(=O)(O)OP(=O)(O)O)[C@@H](O)[C@H]2O)c(=S)[nH]1 |  |  | 1770 nM | > 1000 nM | 50 nM |  | 118% | 44% |  |  |  |  |  |  | 
CCCc1cc(=O)n([C@@H]2O[C@H](COP(=O)(O)O)[C@@H](O)[C@H]2O)c(=O)[nH]1 | 9% |  | > 100000 nM | > 100000 nM | > 100000 nM | 5% | 26% |  |  |  |  |  |  |  | 
CCCc1cc(=O)n([C@@H]2O[C@H](COP(=O)(O)OP(=O)(O)OP(=O)(O)O)[C@@H](O)[C@H]2O)c(=O)[nH]1 | 83% | 16% | > 100000 nM | > 100000 nM | > 1000 nM | 4% | 23% | 0% | inactive | inactive | inactive |  |  |  | 
O=c1ccn([C@@H]2O[C@H](COP(=O)(O)OP(=O)(O)O)[C@@H](O)[C@H]2O)c(=O)[nH]1 [URIDINE_DIPHOSPHATE] |  |  |  | 42 nM |  |  |  |  |  |  |  |  |  |  | 
Cn1c(=O)ccn([C@@H]2O[C@H](COP(=O)(O)O)[C@@H](O)[C@H]2O)c1=O | 30% | 3% | > 100000 nM | ≥ 100000 nM | > 100000 nM | 3% | 51% | 0% |  |  |  |  |  |  | 
O=C(Cn1c(=O)ccn([C@@H]2O[C@H](COP(=O)(O)O)[C@@H](O)[C@H]2O)c1=O)c1ccccc1 | 9% |  | > 100000 nM | > 100000 nM | > 100000 nM | 2% | 16% |  | inactive | inactive | inactive |  |  |  | 
O=c1[nH]c(=O)n([C@@H]2O[C@H](COP(=O)(O)OP(=O)(O)C(Cl)(Cl)P(=O)(O)O)[C@@H](O)[C@H]2O)cc1Br |  |  | 3990 nM | 120 nM | 354 nM |  |  |  |  |  |  |  |  |  | 
O=c1[nH]c(=O)n([C@@H]2O[C@H](COP(=O)(O)O)[C@@H](O)[C@H]2O)cc1Br | 70% | 2% | > 100000 nM | > 1000 nM | > 1000 nM | 21% | 124% | 43% |  |  |  |  |  |  | 
O=C(Cn1c(=O)ccn([C@@H]2O[C@H](COP(=O)(O)OP(=O)(O)OP(=O)(O)O)[C@@H](O)[C@H]2OP(=O)(O)O)c1=O)c1ccccc1 | 107% | 54% | > 100000 nM | > 1000 nM | ≤ 1000 nM | 0% | 75% | 0% |  |  |  |  |  |  | 
Cn1c(=O)ccn([C@@H]2O[C@H](COP(=O)(O)OP(=O)(O)OP(=O)(O)O)[C@@H](O)[C@H]2O)c1=O |  |  | 2920 nM | > 1000 nM | 564 nM |  | 109% | 2% |  |  |  |  |  |  | 
O=c1[nH]c(=O)n([C@@H]2O[C@H](COP(=O)(O)OP(=O)(O)OP(=O)(O)O)[C@@H](O)[C@H]2O)cc1Br |  |  | 3460 nM | 291 nM | 347 nM |  |  |  |  |  |  |  |  |  | 
Cc1cc(=O)n([C@@H]2O[C@H](COP(=O)(O)O)[C@@H](O)[C@H]2O)c(=O)[nH]1 | 17% |  | > 100000 nM | > 100000 nM | > 100000 nM | 6% | 2% |  |  |  |  |  |  |  | 
O=c1ccn([C@@H]2O[C@H](COP(=O)(O)OP(=O)(O)O)[C@@H](O)[C@H]2O)c(=S)[nH]1 | 91% | 42% | > 1000 nM | 239 nM | > 1000 nM | 73% |  |  |  |  |  | 18% |  |  | 
Cc1cc(=O)n([C@@H]2O[C@H](COP(=O)(O)OP(=O)(O)OP(=O)(O)O)[C@@H](O)[C@H]2O)c(=O)[nH]1 | 93% | 18% | > 100000 nM | > 1000 nM | > 1000 nM | 29% | 72% | 0% | inactive | inactive | inactive | 8% |  |  | 
CCCc1cc(=O)n([C@@H]2O[C@H](COP(=O)(O)OP(=O)(O)O)[C@@H](O)[C@H]2O)c(=O)[nH]1 | 28% |  | > 100000 nM | > 1000 nM | > 100000 nM | 0% | 23% |  |  | inactive |  |  |  |  | 
O=c1[nH]c(=O)n([C@@H]2O[C@H](COP(=O)(O)OP(=O)(O)O)[C@@H](O)[C@H]2O)cc1Br |  |  | 7200 nM | 151 nM | 3670 nM |  |  |  |  |  |  |  | 48 | 130 nM | 24
O=c1cc(O)n([C@@H]2O[C@H](COP(=O)(O)O)[C@@H](O)[C@H]2O)c(=O)[nH]1 | 11% |  | > 100000 nM | > 100000 nM | > 100000 nM | 11% | 0% |  |  |  |  |  |  |  | 
Cc1cc(=O)n([C@@H]2O[C@H](COP(=O)(O)OP(=O)(O)O)[C@@H](O)[C@H]2O)c(=O)[nH]1 | 69% | 25% | > 100000 nM | > 1000 nM | > 1000 nM | 7% | 108% | 0% |  |  |  |  |  |  | 
CCCc1cc(=O)n([C@@H]2O[C@H](COP(=O)(O)OP(=O)(O)OP(=O)(O)O)[C@H]3OP(=O)(O)O[C@H]32)c(=O)[nH]1 | 69% | 24% | > 100000 nM | > 100000 nM | > 1000 nM | 1% | 8% |  |  |  |  |  |  |  | 
O=c1ccn([C@@H]2O[C@H](COP(=O)(O)O)[C@@H](O)[C@H]2O)c(=S)[nH]1 | 51% | 6% | > 100000 nM | > 100000 nM | ≥ 100000 nM | 2% | 18% |  |  |  |  |  |  |  | 
O=C(Cn1c(=O)ccn([C@@H]2O[C@H](COP(=O)(O)OP(=O)(O)OP(=O)(O)O)[C@@H](O)[C@H]2O)c1=O)c1ccccc1 | 103% | 38% | > 1000 nM | > 1000 nM | > 1000 nM | 54% | 100% | 27% |  |  |  | 10% |  |  | 

Source: ChEMBL document CHEMBL1137364, “Synthesis and structure-activity relationships of uracil nucleotide derivatives and analogues as agonists at human P2Y2, P2Y4, and P2Y6 receptors” (J Med Chem, 2006)
